Experimental data published in patent US5612360A, “Angiotensin II antagonists” (Eli Lilly and Company, priority 1993, dated 1997).

Target: angiotensin II receptor
Test: Adrenal Glomerulosa Test System: displacement of I^125-angiotensin II binding to rat adrenal membranes
Details: I^125-angiotensin II 0.1 nM, room temperature, 90 minutes, KI by Cheng Prusoff equation
Procedure: The compounds of Formula I are potent effective antagonists of angiotensin II. The ability of representative compounds of Formula I to block angiotensin II receptor binding was determined using the adrenal glomerulosa assay. The ability to antagonize angiotensininduced vasoconstriction was evaluated in the rabbit aorta test system.
Binding of I^125 -angiotensin II to adrenal membranes was routinely carried out in 96-well filtration plates. Adrenal membranes were prepared from the capsular portion (glomerulosal layer attached) of rat adrenal glands by differential centrifugation. Briefly, capsules were homogenized in a solution containing sucrose, 250 mM; MgCl2, 1 mM; and tris, 5 mM at pH 7.5 and 4° C. using a polytron at setting 5 for 20 seconds. The homogenate was stirred gently for 15 minutes at 4° C. and then centrifuged 10 minutes, at 1000×g, 4° C. The supernatant was centrifuged 30 minutes, at 30,000×g, 4° C., and the resulting pellet resuspended in 50 mM tris. Membrane preparations were stored in aliquots at -70° C. until used. Binding of I^125 -angiotensin II to adrenal membranes was performed at room temperature for 90 minutes in 96-well plates containing a hydrophilic polyvinylidene fluoride membrane (0.45 μm, Millipore-GV multiscreen). Each 250 μl incubate contained the following (final concentration): tris, 50 mM; NaCl, 120 mM; MgCl2, 5 mM; dithiothrietol 1 mM; bovine serum albumin, 0.05%; I^125 -angiotensin II, 0.1 nM; and adrenal membrane protein, 8-15 μg. Antagonists were added in concentrations from 10 nM to 100 μM. Non-specific binding was measured in the presence of 0.1 μM Sar1, Ile8 angiotensin II. Binding was terminated by vacuum filtration. Receptor-ligand complex trapped on filters was washed 3 times with 300 μl ice-cold wash solution (tris, 50 mM; NaCl, 120 mM; MgCl2, 5 mM; dithiothrietol, 1 mM). Filter discs were dried, punched out and counted in a gamma counter at 52% efficiency. Specific binding represented 96% of total binding (approximately 150 fmol angiotensin II/mg protein). The molar concentration (IC50) of the inhibitor that displaced 50% of the binding of 1125 angiotensin II for each compound was calculated using a 4 parameter logistics model (NonLin, SAS Institute). Data are expressed as KI (μm) calculated using the Cheng Prusoff equation. See Cheng et al. Biochemo Pharmacol. 22: 3099 (1973).

Row | Compound | Ki [nM]
1 | CCCCCCC(C(=O)O)n1ncc2cc(-c3ccccc3-c3nn[nH]n3)ccc21 (stereo not shown) [27 2H] | 5430
2 | CCCCCCC(C(=O)O)n1ccc2cc(-c3ccccc3C(=O)O)ccc21 (stereo not shown) [Example 1, 2[-5-(2-Carboxyphenyl)indol-1-yl]octanoic acid] | 3860
3 | CCCCCCC(C(=O)O)n1ccc2cc(-c3cccc(O)c3C(=O)O)ccc21 (stereo not shown) [Example 2, 2-[5-(2-Carboxy-3-hydroxyphenyl)indol-1-yl]octanoic acid] | 9450
4 | CCCCCCC(C(=O)O)n1cnc2cc(-c3ccccc3-c3nn[nH]n3)ccc21 (stereo not shown) [Example 3, 2-[5-[2-(2H-Tetrazol-5-yl)phenyl]-1H-benzimidazol-1-yl]octanoic acid] | 5600
5 | CCCCCCC(C(=O)O)n1c(C)nc2cc(-c3ccccc3-c3nnn[nH]3)ccc21 (stereo not shown) [Example 5] | 360
6 | CCCCCCC(c1nccn1C)n1cnc2cc(-c3ccccc3-c3nnn[nH]3)ccc21 (stereo not shown) [Example 14, 1-Methyl-2-[1-[5-2-(2H-Tetrazol-5-yl)phenyl-1H-benzimidazol-1-yl]heptyl]-1H-imidazole] | 1080
7 | CCCCCCC(CC(=O)O)n1ccc2cc(-c3ccccc3-c3nn[nH]n3)ccc21 (stereo not shown) [Example 21, 3-[5-[2-(2H-Tetrazol-5-yl)phenyl]indol-1-yl]nonanoic Acid] | 2260
8 | CCCCCC(C(=O)O)n1ccc2cc(-c3ccccc3-c3nn[nH]n3)ccc21 (stereo not shown) [Example 22, 2-[5-[2-(2H-Tetrazol-5-yl)phenyl]indol-1-yl]heptanoic Acid] | 1720
9 | CCCCCCC(C(=O)O)n1cc(Cc2ccccc2)c2cc(-c3ccccc3-c3nn[nH]n3)ccc21 (stereo not shown) [Example 24, 2-[3-benzyl-5-[2-(2H-tetrazol-5-yl)phenyl]indol-1-yl]octanoic Acid] | 13700
10 | CCCCCCC(C(=O)O)n1cc(Br)c2cc(-c3ccccc3-c3nnn[nH]3)ccc21 (stereo not shown) [Example 26, 2-[3-Bromo-5-[2-[2H-tetrazol-5-yl)phenyl]indo-1-yl]octanoic Acid] | 5720
11 | CCCCC(c1cccc(C(F)(F)F)c1)n1ccc2cc(-c3ccccc3-c3nn[nH]n3)ccc21 (stereo not shown) [Example 28, 5-[2-(2H-tetrazol-5-yl)phenyl]-1-[1-(3-trifluoromethylphenyl)-1-pentyl]indole] | 14300
12 | CCCCC(c1ccc(C(F)(F)F)cc1)n1ccc2cc(-c3ccccc3-c3nn[nH]n3)ccc21 (stereo not shown) [Example 29, 5-[2-(2H-tetrazol-5-yl)phenyl]-1-[1-(4-trifluoromethylphenyl)-1-pentyl]indole] | 19200

The remaining lines, values ahead:

Row | Ki [nM] | Compound
13 | 85 | CCCCCCC(C(=O)O)n1c(C(F)(F)F)nc2cc(-c3ccccc3-c3nn[nH]n3)ccc21 (stereo not shown) [Example 6, 2-[5-[2-(2H-Tetrazol-5-yl)phenyl]-2-trifluoromethyl-1H-benzimidazol-1-yl]octanoic acid]
14 | 29 | CCCCCCC(C(=O)N1CCC[C@H]1C(=O)O)n1cnc2cc(-c3ccccc3-c3nn[nH]n3)ccc21 (stereo partly drawn) [Example 9, 1-[1-Oxo-2-[5-[2-(2H-tetrazol-5-yl)phenyl]-1H-benzimidazole-1-yl]octyl]-L-proline]
15 | 4.2 | CCCCCCC(C(=O)N1CC(O)C[C@H]1C(=O)O)n1cnc2cc(-c3ccccc3-c3nn[nH]n3)ccc21 (stereo partly drawn) [Example 13, 1-[1-oxo-2-[5-[2-(2H-tetrazol-5-yl)phenyl]-1H-benzimidazole-1-yl]octyl]-4-hydroxy-L-proline]
16 | 62 | CCCCCCC(c1nnn[nH]1)n1cnc2cc(-c3ccccc3-c3nnn[nH]3)ccc21 (stereo not shown) [Example 34]
17 | 81.4 | CCCCCCC(C(=O)N(C)CC(=O)O)n1cnc2cc(-c3ccccc3-c3nn[nH]n3)ccc21 (stereo not shown) [Example 37, 1-[1-Oxo-2-[5-[2-(2H-tetrazol-5-yl]phenyl]-1H-benzimidazol-1]octyl]-N-methylglycine]
18 | 250 | CCCCCCC(C(=O)N1CC2(C[C@H]1C(=O)O)OCCO2)n1cnc2cc(-c3ccccc3-c3nn[nH]n3)ccc21 (stereo partly shown) [Example 40]
19 | 100 | CCCCCCC(C(=O)N[C@@H](CC(=O)O)C(=O)O)n1cnc2cc(-c3ccccc3-c3nn[nH]n3)ccc21 (stereo partly drawn) [Example 41, N-[1-Oxo-2-[5-[2-(2H-tetrazol-5-yl]phenyl]-1H-benzimidazol-1-yl]octyl]-L-aspartic Acid]
20 | 265 | CCCCCCC(C(=O)N[C@@H](CO)C(=O)O)n1cnc2cc(-c3ccccc3-c3nn[nH]n3)ccc21 (stereo partly drawn) [Example 42, N-[1-oxo-2-[5-[2-(2H-tetrazol-5-yl]phenyl]-1H-benzimidazol-1-yl]octyl]-L-serine]
21 | 69 | CCCCCCC(C(=O)N1CCC1C(=O)O)n1cnc2cc(-c3ccccc3-c3nn[nH]n3)ccc21 (stereo not shown) [Example 43]
22 | 199 | CCCCCCC(C(=O)N1CCC(C(=O)O)C1)n1cnc2cc(-c3ccccc3-c3nn[nH]n3)ccc21 (stereo not shown) [Example 44]

Target: T1, rabbit aorta (Oryctolagus cuniculus, UniProt P34976)
T1 sequence (P34976 1-359): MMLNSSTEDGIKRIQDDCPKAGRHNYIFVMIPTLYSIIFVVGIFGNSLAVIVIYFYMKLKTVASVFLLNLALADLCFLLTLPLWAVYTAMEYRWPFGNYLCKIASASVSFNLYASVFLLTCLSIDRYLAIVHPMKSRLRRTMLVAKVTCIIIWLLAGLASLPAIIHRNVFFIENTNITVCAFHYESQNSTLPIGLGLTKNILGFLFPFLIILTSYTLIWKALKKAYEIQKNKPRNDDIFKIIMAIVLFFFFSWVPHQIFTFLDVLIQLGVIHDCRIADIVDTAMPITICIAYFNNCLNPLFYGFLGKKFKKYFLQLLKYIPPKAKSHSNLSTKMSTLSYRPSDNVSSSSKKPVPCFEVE
Test: Rabbit Aorta Test System: antagonism of angiotensin II-induced contraction of thoracic aorta rings
Format: cell-based, New Zealand white rabbit
Details: pA2 = -log KB; AII concentration response curve 10^-10 to 10^-7 M, 30 minutes incubation, 37° C.

Row | Rabbit Aorta (pA2) | Compound
23 | 5.4 | 1-[5(and 6)-[2-(2H-Tetrazol-5-yl)phenyl]-2-pentyl-1H-benzimidazol-1-yl]acetic acid [Example 61]
24 | 6.5 | 2-[1-Hexyl-5-[2-(2H-tetrazol-5-yl)phenyl]-1H-benzimidazol-2-yl]propionic Acid [Example 30]
25 | 7.2 | CCCCCC#CC(C(=O)O)n1cnc2cc(-c3ccccc3-c3nn[nH]n3)ccc21 (stereo not shown) [Example 16]
26 | 6.5 | CCCC/C=C/C(C(=O)O)n1ccc2cc(-c3ccccc3-c3nn[nH]n3)ccc21 (stereo not drawn) [Example 25A, 2-[5-[2-(2H-Tetrazol-5-yl)phenyl]indol-1-yl]-3-trans-octenoic acid]
27 | 7.3 | CCCC/C=C\C(C(=O)O)n1ccc2cc(-c3ccccc3-c3nn[nH]n3)ccc21 (stereo not drawn) [Example 25B, 2-[5-[2-(2H-tetrazol-5-yl)phenyl]indol-1-yl]-3-cis-octenoic acid]

Row | Compound | Rabbit Aorta (pA2)
28 | 4-Butoxy-2-[5(and 6)-[2-(2H-tetrazol-5-yl)phenyl]-1H-benzimidazol-1-yl]-butanoic acid [Example 11] | 6.7
